Experimental data from patent EP4755885A1 (Shanghai Hansoh Biomedical Co., Ltd., priority 2023, dated 2025).
pEC50: −log10 of the molar value.

Experiments:
human GLP-1 receptor = biological target: T1, human GLP-1 receptor (Homo sapiens, UniProt P43220); experiment: cAMP production in cell line stably transformed with human GLP1 receptor, 2 h co-incubation (HTRF); assay type: cell-based; details: CHO-K1/GLP-1R/CRE-luc cells, stimulation for 2 h, read-out: EC50
T1 construct: expressed in transfected cells
T1 sequence (P43220 24-463): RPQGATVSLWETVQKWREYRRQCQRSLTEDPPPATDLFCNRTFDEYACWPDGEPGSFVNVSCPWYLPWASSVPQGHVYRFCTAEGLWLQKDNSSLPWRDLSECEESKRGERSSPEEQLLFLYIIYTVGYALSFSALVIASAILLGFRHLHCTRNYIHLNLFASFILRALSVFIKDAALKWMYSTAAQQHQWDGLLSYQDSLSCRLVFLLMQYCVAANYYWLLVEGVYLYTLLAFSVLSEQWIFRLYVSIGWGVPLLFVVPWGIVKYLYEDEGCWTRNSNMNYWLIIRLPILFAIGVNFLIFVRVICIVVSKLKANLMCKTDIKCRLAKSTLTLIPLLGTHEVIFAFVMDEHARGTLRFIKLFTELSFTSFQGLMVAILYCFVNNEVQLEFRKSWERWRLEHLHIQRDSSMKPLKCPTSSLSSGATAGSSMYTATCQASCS
Experimental: The purpose of this assay example is to test the ability of the compound to activate the human GLP-1 receptor on cell surface. The EC50 for stimulated cAMP production after activation characterizes the ability of the compound to activate the human GLP-1 receptor.
In this experiment, the compound and cells were co-incubated for 2 h.
Frozen cell line CHO-K1/GLP-1R/CRE-luc stably transformed with human GLP1 receptor was removed from a liquid nitrogen tank, and was placed in a 37°C water bath for rapid thawing. The cells were resuspended in DMEM/F12 medium, and after centrifugation, were washed once. The cells were resuspended in an experimental buffer, i.e., DMEM/F12 medium containing 0.1% casein. After centrifugation, cell density was adjusted using the experimental buffer. The cells were plated onto a 384-well plate at a density of 1500 cells/5 µL/well. Then, each well was added with 2.5 µL of IBMX working solution prepared with the buffer, the final concentration of IBMX being 0.5 mM, and 2.5 µL of a serially diluted compound sample (starting from […], 3-fold dilution, 12 concentrations). The plate was centrifuged at 1000 rpm for 1 min, and was stood for incubation at 37°C for 2 h. Determination was performed using the Cisbio cAMP - Gs Dynamic kit. cAMP-d2 and anti-cAMP-Eu3+-Cryptate were diluted 18-fold and 20-fold respectively with cAMP Lysis & Detection Buffer, and were respectively mixed homogeneously. Each well was added with 5 µL of diluted cAMP-d2 solution, and the plate was centrifuged at 1000 rpm for 1 min, and shaken for 30 seconds for homogeneous mixing. Then, each well was added with 5 µL of diluted anti-cAMP-Eu3+-Cryptate solution, and the plate was centrifuged at 1000 rpm for 1 min and was incubated in the dark at room temperature for 1 h. HTRF signals were read using the Biotek Synergy H1 microplate reader, the excitation wavelength being 320 nm and the emission wavelengths being 620 nm and 665 nm.
The signal-to-signal ratio was calculated (665 nm/620 nm * 10,000). Nonlinear fitting between the signal-to-signal ratio and the sample concentration was performed in GraphPad Prism 10 using a four-parameter equation to obtain the EC50 value.

[1] = Pharmacokinetic evaluation in beagles, oral administration; assay type: in vivo; details: p.o. 2 mg/kg, plasma; for MRT inf: read-out: MRT 0-∞
Experimental: Beagles were used as test animals to study the pharmacokinetic behavior of the compound of the present invention, administered orally at a dose of 2 mg/kg, in beagles (plasma).
Beagles, 3 per group, male.
(§1) Preparation of drug for oral administration: 10%PEG400/10%PG/80% glycine buffer (100 mM glycine, 64 Mm NaOH, […]) buffer.
(§2) Single PK: The compound of the present invention was weighed into a 100 mL glass bottle, and the solution was added. The pH was first adjusted with 1 M NaOH until the compound dissolves to obtain a clear solution, and then the pH was readjusted to pH 9.0-9.5 with 1 M HCl. Sonication was performed for 10 min to obtain a colorless clear solution having a concentration of 0.4 mg/mL.
Three beagles, male, respectively administered p.o. after fasting overnight, at a dose of 2 mg/kg and in an administration volume of 5 mL/kg.
(§3) Blood collection: 0.3 mL of blood was collected from the forelimb vein of the beagles before administration and at 0.25, 0.5, 1, 2, 4, 6, 8, and 24 h after administration. The blood samples were placed in EDTA-K2 anticoagulant tubes and centrifuged at 6000 rpm at 4°C for 6 min to separate plasma, which was stored at -80°C. The beagles were fed 4 h after administration.
(§4) • 1) 40 µL of a plasma sample was added with 160 µL of acetonitrile for precipitation, and after mixing, the mixture was centrifuged at 3500 × g for 5 to 20 min. • 2) The supernatant solution after treatment was taken for LC/MS/MS analysis of the concentration of the test compound. The LC/MS/MS analysis instrument was AB Sciex API 4000 Qtrap.
(§5) • Liquid phase condition: Shimadzu LC-20AD pump • Chromatographic column: Agilent ZORBAX XDB-C18 (50×2.1 mm, 3.5 µm) Mobile phase: Solution A was 0.1% formic acid aqueous solution, and Solution B was acetonitrile • Flow rate: 0.4 mL/min • Elution time: 0-4.0 min, the eluent was as follows: […]

[2] = Pharmacokinetic evaluation in rats, oral administration; parameters: species or system SD rats; details: rat, in vivo, p.o. 5 mg/kg, plasma; for MRT inf: read-out: MRT 0-∞
Experimental: SD rats were used as test animals to study the pharmacokinetic behavior of the following example compounds, administered orally at a dose of 5 mg/kg, in the plasma of the rats. SD rats, 3 per group, male. […] An example compound was weighed and added to a 4 mL glass bottle, and the solution was added. […] Sonication was performed for 10 min to obtain a colorless clear solution having a concentration of 0.5 mg/mL. […] The blood samples were placed in EDTA-K2 tubes and centrifuged at 6000 rpm at 4°C for 6 min to separate plasma, which was stored at -80°C. […] • Liquid phase conditions: Shimadzu LC-20AD pump • Mass spectrometry conditions: AB Sciex API 4000 mass spectrometer • Chromatographic column: phenomenex Gemiu 5 um C18 50 × 4.6 mm • Mobile phase: Solution A was 0.1% formic acid aqueous solution, and Solution B was methanol • Flow rate: 1.0 mL/min • Elution time: 0-4.0 min, the eluent was as follows: […] The results of the rat pharmacokinetic experiment are shown in the table below: Table 5: Pharmacokinetic parameters of oral administration of the compound of the present invention in rats

[3] = Pharmacokinetic evaluation in mice, oral administration; assay type: in vivo, Balb/c mice; details: p.o. 5 mg/kg, plasma; for AUC(0-inf) / AUC(0-t) / Cmax / Tmax / MRT inf: mouse, in vivo, po; for MRT inf: read-out: MRT 0-∞
Experimental: Balb/c mice were used as test animals to study the pharmacokinetic behavior of the compound of the present invention in mice (plasma) at a dose of 5 mg/kg administered orally and 1 mg/kg administered intravenously.
Balb/c mice, 3 per group, male.
as §1
10 ml of PEG400, 10 ml of PG, and 80 ml of (100 mM glycine, 64 Mm NaOH, pH = 9) were measured into a 100 ml volumetric flask, vortexed, mixed homogeneously, and sonicated to obtain a clear solution.
Single PK: An example compound was weighed into a 4 mL glass bottle. The solution was added, and sonication was performed for 10 min to obtain a colorless clear solution having a concentration of 0.5 mg/mL.
The solution was added, and sonication was performed for 10 min to obtain a colorless clear solution having a concentration of 0.5 mg/mL.
Three Balb/c mice, male, respectively administered p.o. after fasting overnight, at a dose of 5 mg/kg and in an administration volume of 10 mL/kg.
The blood samples were placed in EDTA-K2 anticoagulant tubes and centrifuged at 6000 rpm at 4°C for 6 min to separate plasma, which was stored at -80°C. The mice were fed 4 h after administration.
as §4
• Liquid phase condition: Shimadzu LC-20AD pump • Chromatographic column: Agilent ZORBAX XDB-C18 (50×2.1 mm, 3.5 µm) Mobile phase: Solution A was 0.1% formic acid aqueous solution, and Solution B was acetonitrile • Flow rate: 0.4 mL/min • Elution time: 0-4.0 min, the eluent was as follows:
Main pharmacokinetic parameters were calculated using WinNonlin 6.1.

[4] = Pharmacokinetic evaluation in Macaca fascicularis monkeys, oral administration; assay type: in vivo; details: cynomolgus monkey, p.o. 5 mg/kg, plasma
Experimental: Macaca fascicularis monkeys were used as test animals to study the pharmacokinetic behavior of the compound of the present invention, administered orally at a dose of 5 mg/kg, in Macaca fascicularis monkeys (plasma).
Macaca fascicularis monkeys, 3 per group, male.
as §1
as §2, with “1” for “0.4”
Three Macaca fascicularis monkeys, male, respectively administered p.o. after fasting overnight, at a dose of 5 mg/kg and in an administration volume of 5 mL/kg.
as §3, with “Macaca fascicularis monkeys” for “beagles”
as §4, §5

[5] = not marked single PK (cassette PK)

Molecule | pEC50 (human GLP-1 receptor) | AUC(0-inf) [2] [ng·h/mL] | AUC(0-t) [2] [ng·h/mL] | Cmax [2] [ng/mL] | Tmax [2] [h] | half-life [2] [h] | MRT inf [2] [h] | AUC(0-inf) [3, 5] [ng·h/mL] | AUC(0-inf) ([3]; single PK) [ng·h/mL] | AUC(0-t) ([3]; single PK) [ng·h/mL] | Cmax ([3]; single PK) [ng/mL] | Tmax ([3]; single PK) [h] | MRT inf ([3]; single PK) [h] | tl/2 ([3]; single PK) [h] | AUC(0-inf) ([1]; dog, po) [ng·h/mL] | AUC(0-t) at 24 h ([1]; dog, po) [ng·h/mL] | half-life ([1]; dog, po) [h] | Cmax ([1]; dog, po, read-out: Cmax) [ng/mL] | MRT inf ([1]; dog, po) [h] | Tmax ([1]; dog, po, read-out: tmax) [h] | other results
3-((3R,4r,5 S)-4-(5-((S)-2,2-dimethyltetrahydro-2H-pyran-4-yl)-2-((S)-3-(3-(4-fluoro-1-(methyl-d3)-1H-indazol-5-yl)-2-carbonyl-2,3-dihydro-1H-imidazol-1-yl)-2-(4-fluoro-3,5-dimethylbenzene)-4-methyl-4,5,6,7-tetrahydro-2H-pyrazolo[4,3-c]pyridine-5-carbonyl)-1H-indol-1-yl)tetrahydro-2H-pyran-4-yl)-1,2,4-oxadiazol-5(4H)-one [Example 338] | 10.64 |  |  |  |  |  |  |  |  |  |  |  |  |  |  |  |  |  |  |  | AUC 0-∞ [1]: 21417 ng·h/mL; AUC(0-t) [1]: 20922 ng·h/mL; Cmax [1]: 3915 ng/mL; MRT 0-∞ [1]: 5.3 h; Tmax [1]: 1.3 h; t1/2 [1]: 4.4 h
Cc1cc(-n2nc3c(c2-n2ccn(-c4ccc5c(cnn5C5CC5)c4F)c2=O)[C@H](C)N(C(=O)c2cc4cc([C@H]5CCOC(C)(C)C5)ccc4n2[C@@]2(c4noc(=O)[nH]4)C[C@@H]2C)CC3)cc(C)c1F [Example 25] |  | 37300 | 28500 | 1960 | 6 | 10.5 | 16.4 | 39000 |  |  |  |  |  |  |  |  |  |  |  |  | AUC(0-t) [3, 5]: 30500 ng·h/mL; Cmax [3, 5]: 2060 ng/mL; Tmax [3, 5]: 2 h; MRT inf [3, 5]: 15.2 h; tl/2 [3, 5]: 10.7 h
Cc1cc(-n2nc3c(c2-n2ccn(-c4cc5c6c(c4)CCC(=O)N6CCC5)c2=O)[C@H](C)N(C(=O)c2cc4cc([C@H]5CCOC(C)(C)C5)ccc4n2[C@@]2(c4noc(=O)[nH]4)C[C@@H]2C)CC3)cc(C)c1F [Example 34] | 9.96 |  |  |  |  |  |  |  | 13300 | 12100 | 1510 | 1 | 9 | 7.8 | 9390 | 9090 | 5.1 | 1330 | 5.7 | 1.7 | 
Cc1cc(-n2nc3c(c2-n2ccn(-c4ccc5c6c(nn5C)CCCOc46)c2=O)[C@H](C)N(C(=O)c2cc4cc([C@H]5CCOC(C)(C)C5)ccc4n2[C@@]2(c4noc(=O)[nH]4)C[C@@H]2C)CC3)cc(C)c1F [Example 35] |  | 14100 | 12400 | 1110 | 4.7 | 7.2 | 11.5 |  | 41000 | 32900 | 3070 | 1.2 | 13.9 | 10.3 |  |  |  |  |  |  | 
Cc1cc(-n2nc3c(c2-n2ccn(-c4ccc5c(cnn5C5CC5)c4F)c2=O)[C@H](C)N(C(=O)c2cc4cc([C@H]5CCOC(C)(C)C5)ccc4n2[C@@]2(c4noc(=O)[nH]4)[C@@H]4COC[C@@H]42)CC3)cc(C)c1F [Example 65-1] | 10.22 |  |  |  |  |  |  |  | 10900 | 10600 | 1220 | 2.7 | 6.5 | 4.8 | 43900 | 41000 | 5.9 | 4360 | 8.1 | 2.8 | AUC(0-inf) [4]: 30800 ng·h/mL; AUC(0-t) [4]: 29700 ng·h/mL; Cmax [4]: 4460 ng/mL; Tmax [4]: 2 h; half-life [4]: 5.6 h; MRT inf ([4]; read-out: MRT 0-∞): 7.5 h
[2H]C([2H])(OC1CC1)[C@H]1C[C@]1(c1noc(=O)[nH]1)n1c(C(=O)N2CCc3nn(-c4cc(C)c(F)c(C)c4)c(-n4ccn(-c5ccc6c(cnn6C6CC6)c5F)c4=O)c3[C@@H]2C)cc2cc([C@H]3CCOC(C)(C)C3)ccc21 [Example 194] | 11.05 |  |  |  |  |  |  | 32200 |  |  |  |  |  |  | 43700 | 40100 | 7.6 | 5830 | 8.3 | 1 | AUC(0-t) [3, 5]: 19100 ng·h/mL; Cmax [3, 5]: 1840 ng/mL; Tmax [3, 5]: 2.7 h; MRT inf [3, 5]: 26.6 h; tl/2 [3, 5]: 19.9 h
